Experimental data as given in paper PMC8006935, “Study of Combinatorial Drug Synergy of Novel Acridone Derivatives With Temozolomide Using in-silico and in-vitro Methods in the Treatment of Drug-Resistant Glioma” (Frontiers in Oncology, 2021).

Test: Acute Oral Toxicity - Fixed Dose procedure
Type: in vivo
Details: for clinical sign of toxicity: oral, single dose, 14 days observation, female albino Wistar rats
Method: Animal study was conducted for acridone derivatives AC2, AC7, and AC26 alone and in combination with Temozolomide for Acute Oral Toxicity - Fixed Dose procedure. The Institutional Animal Ethics Committee bearing CPCSEA/IAEC/P-52/2016 was approved for undertaking the study. Acute oral toxicity was conducted on female albino Wistar rats for 8–12 weeks and were maintained at 25 ± 2 °C in a conditioned room with 50–60% of humidity and free access to food and water was given. Rats were kept for fasting overnight (12 h) before dosing and weights were recorded periodically. Rats in two groups were given acridone derivatives alone at a dose of […], rats in two groups were given a combination of Temozolomide : acridone derivatives at dose of 10:1 mg/kg and 15:1.5 mg/kg body weight and one group was kept as control. Dose of Temozolomide was taken as per previously published article ([50]). Compounds alone and combination were suspended in 2.0% of Tween 80 in normal saline and control group was taken for vehicle only. After administering the compound, food was not provided for 3 h. All the rats were monitored periodically for 1 h upto 12 h on the 1st day and thereafter twice in a day for mortality, behavioral changes, signs and symptoms of toxicity for 14 days. Individual weights of rats were taken for all the 14 days and study was conducted twice for each dose.

O=C(NN=CC=Cc1ccccc1)c1cccc2c(=O)c3ccccc3[nH]c12 [AC2, 9-oxo-N'-(3-phenylallylidene)-9,10-dihydroacridine-4-carbohydrazide]
Body weight (g) Day 0 (300 mg/kg oral): 185 ± 6 g
Body weight (g) Day 1 (300 mg/kg oral): 186 ± 12 g
Body weight (g) Day 2 (300 mg/kg oral): 189 ± 10 g
Body weight (g) Day 3 (300 mg/kg oral): 191 ± 15 g
Body weight (g) Day 4 (300 mg/kg oral): 192 ± 12 g
Body weight (g) Day 5 (300 mg/kg oral): 193 ± 22 g
Body weight (g) Day 6 (300 mg/kg oral): 195 ± 12 g
Body weight (g) Day 7 (300 mg/kg oral): 196 ± 10 g
Body weight (g) Day 8 (300 mg/kg oral): 194 ± 12 g
Body weight (g) Day 9 (300 mg/kg oral): 195 ± 10 g
Body weight (g) Day 10 (300 mg/kg oral): 198 ± 15 g
Body weight (g) Day 11 (300 mg/kg oral): 199 ± 16 g
Body weight (g) Day 12 (300 mg/kg oral): 201 ± 10 g
Body weight (g) Day 13 (300 mg/kg oral): 203 ± 6 g
Body weight (g) Day 14 (300 mg/kg oral): 205 ± 18 g
Body weight (g) Day 0 (2000 mg/kg oral): 173 ± 8 g
Body weight (g) Day 1 (2000 mg/kg oral): 175 ± 11 g
Body weight (g) Day 2 (2000 mg/kg oral): 176 ± 8 g
Body weight (g) Day 3 (2000 mg/kg oral): 178 ± 12 g
Body weight (g) Day 4 (2000 mg/kg oral): 180 ± 14 g
Body weight (g) Day 5 (2000 mg/kg oral): 183 ± 15 g
Body weight (g) Day 6 (2000 mg/kg oral): 185 ± 12 g
Body weight (g) Day 7 (2000 mg/kg oral): 188 ± 16 g
Body weight (g) Day 8 (2000 mg/kg oral): 190 ± 12 g
Body weight (g) Day 9 (2000 mg/kg oral): 192 ± 16 g
Body weight (g) Day 10 (2000 mg/kg oral): 195 ± 12 g
Body weight (g) Day 11 (2000 mg/kg oral): 197 ± 8 g
Body weight (g) Day 12 (2000 mg/kg oral): 199 ± 12 g
Body weight (g) Day 13 (2000 mg/kg oral): 202 ± 15 g
Body weight (g) Day 14 (2000 mg/kg oral): 206 ± 7 g
clinical sign of toxicity: No clinical sign of toxicity was observed

O=C(NN=Cc1ccccc1Cl)c1cccc2c(=O)c3ccccc3[nH]c12 [AC7, N'-(2-chlorobenzylidene)-9-oxo-9,10-dihydroacridine-4-carbohydrazide]
Body weight (g) Day 0 (300 mg/kg oral): 175 ± 10 g
Body weight (g) Day 1 (300 mg/kg oral): 176 ± 14 g
Body weight (g) Day 2 (300 mg/kg oral): 178 ± 10 g
Body weight (g) Day 3 (300 mg/kg oral): 181 ± 8 g
Body weight (g) Day 4 (300 mg/kg oral): 183 ± 12 g
Body weight (g) Day 5 (300 mg/kg oral): 185 ± 15 g
Body weight (g) Day 6 (300 mg/kg oral): 188 ± 11 g
Body weight (g) Day 7 (300 mg/kg oral): 192 ± 12 g
Body weight (g) Day 8 (300 mg/kg oral): 194 ± 12 g
Body weight (g) Day 9 (300 mg/kg oral): 196 ± 14 g
Body weight (g) Day 10 (300 mg/kg oral): 195 ± 11 g
Body weight (g) Day 11 (300 mg/kg oral): 197 ± 16 g
Body weight (g) Day 12 (300 mg/kg oral): 199 ± 12 g
Body weight (g) Day 13 (300 mg/kg oral): 202 ± 10 g
Body weight (g) Day 14 (300 mg/kg oral): 205 ± 18 g
Body weight (g) Day 0 (2000 mg/kg oral): 180 ± 8 g
Body weight (g) Day 1 (2000 mg/kg oral): 181 ± 12 g
Body weight (g) Day 2 (2000 mg/kg oral): 183 ± 8 g
Body weight (g) Day 3 (2000 mg/kg oral): 185 ± 14 g
Body weight (g) Day 4 (2000 mg/kg oral): 187 ± 6 g
Body weight (g) Day 5 (2000 mg/kg oral): 189 ± 11 g
Body weight (g) Day 6 (2000 mg/kg oral): 192 ± 16 g
Body weight (g) Day 7 (2000 mg/kg oral): 193 ± 15 g
Body weight (g) Day 8 (2000 mg/kg oral): 197 ± 10 g
Body weight (g) Day 9 (2000 mg/kg oral): 198 ± 18 g
Body weight (g) Day 10 (2000 mg/kg oral): 201 ± 8 g
Body weight (g) Day 11 (2000 mg/kg oral): 204 ± 10 g
Body weight (g) Day 12 (2000 mg/kg oral): 206 ± 14 g
Body weight (g) Day 13 (2000 mg/kg oral): 208 ± 12 g
Body weight (g) Day 14 (2000 mg/kg oral): 211 ± 16 g
clinical sign of toxicity: No clinical sign of toxicity was observed

CC(=NNC(=O)c1cccc2c(=O)c3ccccc3[nH]c12)c1ccccc1O [AC26, N'(1-(2-hydroxyphenyl)ethylidene)-9-oxo-9,10-dihydroacridine-4-carbohydrazide]
Body weight (g) Day 0 (300 mg/kg oral): 178 ± 10 g
Body weight (g) Day 1 (300 mg/kg oral): 182 ± 8 g
Body weight (g) Day 2 (300 mg/kg oral): 183 ± 12 g
Body weight (g) Day 3 (300 mg/kg oral): 184 ± 16 g
Body weight (g) Day 4 (300 mg/kg oral): 187 ± 10 g
Body weight (g) Day 5 (300 mg/kg oral): 189 ± 16 g
Body weight (g) Day 6 (300 mg/kg oral): 191 ± 12 g
Body weight (g) Day 7 (300 mg/kg oral): 194 ± 18 g
Body weight (g) Day 8 (300 mg/kg oral): 196 ± 12 g
Body weight (g) Day 9 (300 mg/kg oral): 199 ± 10 g
Body weight (g) Day 10 (300 mg/kg oral): 201 ± 14 g
Body weight (g) Day 11 (300 mg/kg oral): 202 ± 16 g
Body weight (g) Day 12 (300 mg/kg oral): 205 ± 12 g
Body weight (g) Day 13 (300 mg/kg oral): 207 ± 8 g
Body weight (g) Day 14 (300 mg/kg oral): 209 ± 18 g
Body weight (g) Day 0 (2000 mg/kg oral): 181 ± 11 g
Body weight (g) Day 1 (2000 mg/kg oral): 182 ± 15 g
Body weight (g) Day 2 (2000 mg/kg oral): 185 ± 10 g
Body weight (g) Day 3 (2000 mg/kg oral): 188 ± 11 g
Body weight (g) Day 4 (2000 mg/kg oral): 189 ± 18 g
Body weight (g) Day 5 (2000 mg/kg oral): 193 ± 22 g
Body weight (g) Day 6 (2000 mg/kg oral): 195 ± 16 g
Body weight (g) Day 7 (2000 mg/kg oral): 199 ± 19 g
Body weight (g) Day 8 (2000 mg/kg oral): 200 ± 14 g
Body weight (g) Day 9 (2000 mg/kg oral): 202 ± 10 g
Body weight (g) Day 10 (2000 mg/kg oral): 206 ± 8 g
Body weight (g) Day 11 (2000 mg/kg oral): 207 ± 9 g
Body weight (g) Day 12 (2000 mg/kg oral): 209 ± 4 g
Body weight (g) Day 13 (2000 mg/kg oral): 211 ± 12 g
Body weight (g) Day 14 (2000 mg/kg oral): 215 ± 20 g
clinical sign of toxicity: No clinical sign of toxicity was observed
